Reference: patent publication US8987209B2, “N-carboxyalkyl-auristatin and the use thereof” (Seattle Genetics, Inc., priority 2010, dated 2015)
Square brackets hold non-standard residues; d marks the D form. Peptide text beside a SMILES is read from it. * marks the point of attachment. NMeVal(N-(CH2)3COOH) = CC(C)[C@@H](C(=O)*)N(C)CCCC(=O)O; Dolaproine = CO[C@@H]([C@@H]1CCCN1)[C@@H](C)C(=O)O; Dil = CC[C@H](C)[C@H](NC)[C@@H](CC(=O)O)OC; X5 = C[C@@H](N*)[C@@H](O)c1ccccc1; NMeV = CN[C@H](C(=O)O)C(C)C

How the values were obtained:
[1] = system: human renal carcinoma cell line 786-0; assay: Anti-proliferative effect on renal cell carcinoma 786-0 cell line (MTT assay); format: cell-based; conditions: 786-0 cells, incubation 48 to 96 hours, serum free medium or 2% FCS
Protocol: B-1. Determination of Anti-proliferative Effects of Renal Cell Carcinoma 786-0 Cell Line:
A defined number of cells of the human renal carcinoma cell line 786-0 were cultured in a 96 well micro titer plate in rich medium (2500 or 7.000 cells/well) and then incubated over night at 37° C./5% CO2. After 18 hours the seed medium was replaced by a serum free medium or medium with 2% FCS. The treatment began with measuring out the respective test substances in varying concentrations (10^−5 M to 10^−14 M). Incubation times of between 48 hours and 96 hours were chosen. The proliferation was determined by means of the MTT assay (ATCC, Manassas, Va., USA, catalogue no. 30-1010K). After completion of incubation period the MTT reagent was incubated with the cells for 4 hours before lysis occurred over night by measuring out the detergent. The created stain was detected at 570 nm. The proliferation of the cells, which were treated identically to the other cells but without the test substance was defined as the 100% value. The data obtained from this test represent triple determinations and at least two experiments had been carried out independently of each other.

HT-29 wt cell line = assay: Anti-proliferative effect on HT-29 wt cell line (MTT assay); format: cell-based, human; conditions: HT-29 wt cells, incubation 48 to 96 hours, medium with 10% FCS
Protocol: B-2. Determination of Anti-proliferative Effects of HT-29 wt Cell Line:
After 18 hours the seed medium was replaced by a fresh medium with 10% FCS. The treatment started with measuring out the respective test substance. The dose-response curves were determined of the investigative substances with a concentration of 10^−5 M to 10^−14 M (1:10 dilutions). Incubation times of between 48 hours and 96 hours were chosen. The proliferation was detected by means of the MTT assay (ATCC, Manassas, Va., USA, catalogue no. 30-1010K). After completion of selected incubation period the MTT reagent was incubated with the cells for 4 hours before lysis occurred over night by measuring out the detergent. The created stain was detected at 570 nm. The proliferation of the cells, which were treated identically to the other cells but without the test substance, was defined as the 100% value. The data obtained from this test represent triple determinations and at least two experiments had been carried out independently of each other.

[2] = Cell permeability, flux assay using Caco-2 cells; format: in vitro ADME; conditions: human, basal to apical, 2 hours incubation
Protocol: (§1) B-5. Determination of Cell Permeability:
(§2) The cell permeability of a substance can be analyzed by means of in vitro tests in a flux assay using Caco-2-cells [M. D. Troutman and D. R. Thakker, Pharm. Res. 20 (8), 1210-1224 (2003)]. For this analysis the cells were cultured on 24 membrane filter plates for 15 to 16 days. In order to determine permeation the test substance in question was given either apical (A) to a HEPES buffer or basal (B) on the cells and incubated for 2 hours. The samples were withdrawn after 0 and 2 hours from the cis and trans compartments. The samples were separated by means of HPLC (Agilent 1200, Böblingen, Germany) using reverse-phase columns. The HPLC system was coupled to a triple quadropol mass spectrometer API 4000 (Applied Biosystems Applera, Darmstadt, Germany) via a turbo ion spray. The permeability was evaluated by means of the Papp value which was calculated with the help of the formula published by Schwab et al. [D. Schwab et al., J. Med. Chem. 46, 1716-1725 (2003)]. A substance was classified as active if the ratio of Papp (B-a) to Papp (A-B) was >2 or <0.5.
(§3) The permeability from B to A [Papp^(B-A)] is particularly important for toxophores which are being released intracellular: The lower the permeability the longer the residence time of the substance in the cell after intracellular release and, consequently, the more time available for interaction with the biochemical target (here: tubulin).

Caco-2-cells = assay: Cell permeability, flux assay using Caco-2 cells; format: in vitro ADME; conditions: basal to apical, 2 hours incubation
Protocol: as §1, §2, §3

SMILES | IC50 ([1]; Homo sapiens) [µM] | IC50 (HT-29 wt cell line; Homo sapiens) [µM] | Papp B→A at 2 h [2] [nm/s] | Papp (B-A) (Caco-2-cells) [nm/s] | IC50 [1] [µM] | IC50 (HT-29 wt cell line) [µM]
CCCNC(=O)[C@]1(NC(=O)[C@H](C)[C@@H](OC)[C@@H]2CCCN2C(=O)C[C@@H](OC)[C@H]([C@@H](C)CC)N(C)C(=O)[C@@H](NC(=O)[C@H](C(C)C)N(C)CCCC(=O)O)C(C)C)C[C@@H]1c1ccccc1 [Example 11, N-(3-carboxypropyl)-N-methyl-L-valyl-N-[(3R,4S,5S)-3-methoxy-1-{(2S)-2-[(1R,2R)-1-methoxy-2-methyl-3-oxo-3-{[(1S,2R)-2-phenyl-1-(propylcarbamoyl)cyclopropyl]amino}propyl]pyrrolidin-1-yl}-5-methyl-1-oxoheptan-4-yl]-N-methyl-L-valinamide] | 0.0067 | 0.0008 | 11 |  |  | 
CC[C@H](C)[C@@H]([C@@H](CC(=O)N1CCC[C@H]1[C@H](OC)[C@@H](C)C(=O)N[C@@H](Cc1ccccc1)C(N)=O)OC)N(C)C(=O)[C@@H](NC(=O)[C@H](C(C)C)N(C)CCCC(=O)O)C(C)C [Example 13, N-(3-carboxypropyl)-N-methyl-L-valyl-N-[(3R,4S,5S)-1-{(2S)-2-[(1R,2R)-3-{[(2S)-1-amino-1-oxo-3-phenylpropan-2-yl]amino}-1-methoxy-2-methyl-3-oxopropyl]pyrrolidin-1-yl}-3-methoxy-5-methyl-1-oxoheptan-4-yl]-N-methyl-L-valinamide] ({NMeVal(N-(CH2)3COOH)}-V[Dil][Dolaproine]F-NH2) | 0.0125 | 0.001 | 10 |  |  | 
CC[C@H](C)[C@@H]([C@@H](CC(=O)N1CCC[C@H]1[C@H](OC)[C@@H](C)C(=O)N[C@@H](Cc1c[nH]c2ccccc12)C(N)=O)OC)N(C)C(=O)[C@@H](NC(=O)[C@H](C(C)C)N(C)CCCC(=O)O)C(C)C [Example 18, N-(3-carboxypropyl)-N-methyl-L-valyl-N-[(3R,4S,5S)-1-{(2S)-2-[(1R,2R)-3-{[(2S)-1-amino-3-(1H-indol-3-yl)-1-oxopropane2-yl]amino}-1-methoxy-2-methyl-3-oxopropyl]pyrrolidin-1-yl}-3-methoxy-5-methyl-1-oxoheptan-4-yl]-N-methyl-L-valinamide] ({NMeVal(N-(CH2)3COOH)}-V[Dil][Dolaproine]W-NH2) | 0.173 | 0.016 | 2 |  |  | 
CC[C@H](C)[C@@H]([C@@H](CC(=O)N1CCC[C@H]1[C@H](OC)[C@@H](C)C(=O)N[C@H](C)[C@@H](O)c1ccccc1)OC)N(C)C(=O)[C@@H](NC(=O)[C@@H](NC)C(C)C)C(C)C [MMAE, monomethylauristatin E, reference compound] (H-[NMeV]V[Dil][Dolaproine]-X5) |  |  |  | 89 |  | 
CC[C@H](C)[C@@H]([C@@H](CC(=O)N1CCC[C@H]1[C@H](OC)[C@@H](C)C(=O)N[C@@H](Cc1ccccc1)C(=O)O)OC)N(C)C(=O)[C@@H](NC(=O)[C@@H](NC)C(C)C)C(C)C [MMAF, Monomethylauristatin F, reference compound] (H-[NMeV]V[Dil][Dolaproine]F-OH) |  |  |  | 73 | 0.26 | 0.01
